Data published in US11051515B2, “3-acyl-benzamides and their use as herbicides” (Bayer Aktiengesellschaft, priority 2017, dated 2021).

Experiments:
ECHCG [1] = test: Post-emergence action against ECHCG; format: in vivo, Echinochloa crus-galli; conditions: Echinochloa crus-galli, 504 h; post-emergence, dosage 80 g/ha, visual assessment about 3 weeks after treatment vs untreated controls; read-out: Post-emergence action against ECHCG (herbicidal action in percent)
In short: (§1)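 Post-emergence foliar spray on greenhouse plants at the one-leaf stage, using wettable-powder or emulsion-concentrate formulations in water (600 to […], plus 0.2% wetting agent). Damage scored by eye roughly 3 weeks later against untreated plants: 0% = like control, 100% = dead.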

CYPES [2] = test: Post-emergence action against CYPES; format: in vivo, Cyperus esculentus; conditions: Cyperus esculentus, 504 h; post-emergence, dosage 80 g/ha, visual assessment about 3 weeks after treatment vs untreated controls; read-out: Post-emergence action against CYPES (herbicidal action in percent)
In short: as §1

PHBPU [3] = test: Post-emergence action against PHBPU; format: in vivo, Pharbitis purpurea; conditions: Ipomoea purpurea, 504 h; post-emergence, dosage 80 g/ha
In short: as §1

SETVI [4] = test: Pre-emergence action against SETVI; format: in vivo, Setaria viridis; conditions: Setaria viridis, 504 h; pre-emergence, dosage 320 g/ha, scored visually after 3 weeks vs untreated controls; read-out: SETVI (Table B8, pre-emergence herbicidal activity)
In short: (§2)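 Seeds sown in sandy loam in wood-fiber pots and covered with soil. Greenhouse growth; visual damage scored after 3 weeks versus untreated controls (100% = dead, 0% = like control).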

AMARE [5] = test: Post-emergence action against AMARE; format: in vivo, Amaranthus retroflexus; conditions: Amaranthus retroflexus, 504 h; post-emergence, dosage 80 g/ha, visual assessment about 3 weeks after treatment vs untreated controls; read-out: Post-emergence action against AMARE (herbicidal action in percent)
In short: as §1

VIOTR [6] = test: Post-emergence action against VIOTR; format: in vivo, Viola tricolor; conditions: Viola tricolor, 504 h; post-emergence, dosage 80 g/ha
In short: as §1

ALOMY [7] = test: Pre-emergence action against ALOMY; format: in vivo, Alopecurus myosuroides; conditions: Alopecurus myosuroides, 504 h; dosage 320 g/ha; pre-emergence; scored visually after 3 weeks vs untreated controls; 100% = plants have died, 0% = like control plants; read-out: Pre-emergence action against ALOMY (herbicidal activity in percent)
In short: as §2

VERPE = test: Post-emergence action against VERPE; format: in vivo, Veronica persica; conditions: Veronica persica, 504 h, dosage 80 g/ha
In short: as §1

MATIN [8] = test: Post-emergence action against MATIN; format: in vivo, Matricaria inodora; conditions: Tripleurospermum inodorum, 504 h; post-emergence, dosage 80 g/ha, visual assessment about 3 weeks after treatment vs untreated controls; read-out: Post-emergence action against MATIN (herbicidal action in percent)
In short: as §1

ABUTH [9] = test: Post-emergence action against ABUTH; format: in vivo, Abutilon theophrasti; conditions: Abutilon theophrasti, 504 h; post-emergence, dosage 80 g/ha, visual assessment about 3 weeks after treatment vs untreated controls; read-out: Post-emergence action against ABUTH (herbicidal action in percent)
In short: as §1

STEME = test: Post-emergence action against STEME; format: in vivo, Stellaria media; conditions: Stellaria media, 504 h; post-emergence, dosage 80 g/ha
In short: as §1

VIOTR [10] = test: Pre-emergence action against VIOTR; format: in vivo, Viola tricolor; conditions: Viola tricolor, 504 h; Dosage 320 g/ha, pre-emergence
In short: as §2

AVEFA [11] = test: Post-emergence action against AVEFA; format: in vivo, Avena fatua; conditions: Avena fatua, 504 h; post-emergence, dosage 80 g/ha, visual assessment about 3 weeks after treatment vs untreated controls; read-out: Post-emergence action against AVEFA (herbicidal action in percent)
In short: as §1

ECHCG [12] = test: Pre-emergence action against ECHCG; format: in vivo, Echinochloa crus-galli; conditions: Echinochloa crus-galli, 504 h; pre-emergence, dosage 320 g/ha, scored visually after 3 weeks vs untreated controls; read-out: Pre-emergence action against ECHCG (herbicidal activity)
In short: as §2

AMARE [13] = test: Pre-emergence action against AMARE; format: in vivo, Amaranthus retroflexus; conditions: Amaranthus retroflexus, 504 h; pre-emergence, dosage 320 g/ha, scored visually after 3 weeks vs untreated controls; read-out: Pre-emergence action against AMARE (herbicidal activity)
In short: as §2

MATIN [14] = test: Pre-emergence action against MATIN; format: in vivo, Matricaria inodora; conditions: Tripleurospermum inodorum, 504 h; Dosage 320 g/ha, pre-emergence
In short: as §2

LOLMU = test: Post-emergence action against LOLMU; format: in vivo, Lolium multiflorum; conditions: Lolium multiflorum, 504 h, dosage 80 g/ha, visual assessment about 3 weeks after treatment vs untreated controls, read-out: Post-emergence action against LOLMU (herbicidal action in percent)
Description: Seeds of monocotyledonous and dicotyledonous weed and crop plants are laid out in sandy loam soil in wood-fiber pots, covered with soil and cultivated in a greenhouse under good growth conditions. 2 to 3 weeks after sowing, the test plants are treated at the one-leaf stage. The compounds of the invention, formulated in the form of wettable powders (WP) or as emulsion concentrates (EC), are then sprayed onto the green parts of the plants in the form of an aqueous suspension or emulsion at a water application rate equating to […], with addition of 0.2% wetting agent. After the test plants have been left to stand in the greenhouse under optimal growth conditions for about 3 weeks, the action of the preparations is assessed visually in comparison to untreated controls (herbicidal action in percent (%): 100% activity=the plants have died, 0% activity=like control plants). […] At the same time, inventive compounds leave Gramineae crops such as barley, wheat, rye, millet/Sorghum, corn or rice virtually undamaged when applied post-emergence, even at high active ingredient dosages. In addition, some substances are also harmless to dicotyledonous crops such as soya, cotton, oilseed rape, sugar beet or potatoes. Some of the compounds according to the invention have high selectivity and are therefore suitable for controlling unwanted vegetation in agricultural crops by the post-emergence method. The data of Tables B18 to B34 below illustrate, in an exemplary manner, the […] herbicidal action of the compounds according to the invention, the herbicidal activity being stated in percent.

SETVI [15] = test: Post-emergence action against SETVI; format: in vivo, Setaria viridis; conditions: Setaria viridis, 504 h; post-emergence, dosage 80 g/ha, visual assessment about 3 weeks after treatment vs untreated controls; read-out: Post-emergence action against SETVI (herbicidal action in percent)
In short: as §1

PHBPU [16] = test: Pre-emergence action against PHBPU; format: in vivo, Pharbitis purpurea; conditions: Ipomoea purpurea, 504 h; Dosage 320 g/ha, pre-emergence
In short: as §2

ABUTH [17] = test: Pre-emergence action against ABUTH; format: in vivo, Abutilon theophrasti; conditions: Abutilon theophrasti, 504 h; pre-emergence, dosage 320 g/ha, scored visually after 3 weeks vs untreated controls; read-out: Pre-emergence action against ABUTH (herbicidal activity)
In short: as §2

CYPES [18] = test: Pre-emergence action against CYPES; format: in vivo, Cyperus esculentus; conditions: Cyperus esculentus, 504 h; pre-emergence, dosage 320 g/ha, scored visually after 3 weeks vs untreated controls; read-out: Pre-emergence action against CYPES (herbicidal activity)
In short: as §2

ALOMY [19] = test: Post-emergence action against ALOMY; format: in vivo, Alopecurus myosuroides; conditions: Alopecurus myosuroides, 504 h; Dosage 80 g/ha, post-emergence
In short: as §1

AVEFA [20] = test: Pre-emergence action against AVEFA; format: in vivo, Avena fatua; conditions: Avena fatua, 504 h, dosage 320 g/ha, scored visually after 3 weeks vs untreated controls, read-out: Pre-emergence action against AVEFA (herbicidal activity)
In short: as §2

`Cc1c(C(=O)Nc2nnnn2C)ccc(C(F)(F)F)c1C(=O)C1CC1` [1-18, 3-(cyclopropylcarbonyl)-2-methyl-N-(1-methyl-1H-tetrazol-5-yl)-4-(trifluoromethyl)benzamide] gave a pest or weed control at 80 g/ha (ECHCG [1]) of 90%, a pest or weed control at 80 g/ha (CYPES [2]) of 90% and a pest or weed control at 80 g/ha (PHBPU [3]) of 100%. For the same compound, the pest or weed control at 320 g/ha (SETVI [4]) was 100%, the pest or weed control at 80 g/ha (AMARE [5]) was 90% and the pest or weed control at 80 g/ha (VIOTR [6]) was 100%. The pest or weed control at 320 g/ha (ALOMY [7]) was 100%, the pest or weed control at 80 g/ha (VERPE) was 100% and the pest or weed control at 80 g/ha (MATIN [8]) was 100%. It also gave a pest or weed control at 80 g/ha (ABUTH [9]) of 80%, a pest or weed control at 80 g/ha (STEME) of 100% and a pest or weed control at 320 g/ha (VIOTR [10]) of 100%. The pest or weed control at 80 g/ha (AVEFA [11]) was 100%, the pest or weed control at 320 g/ha (ECHCG [12]) was 100% and the pest or weed control at 320 g/ha (AMARE [13]) was 100%. It also gave a pest or weed control at 320 g/ha (MATIN [14]) of 100%, a pest or weed control at 80 g/ha (LOLMU) of 90% and a pest or weed control at 80 g/ha (SETVI [15]) of 100%. It also gave a pest or weed control at 320 g/ha (PHBPU [16]) of 90%, a pest or weed control at 320 g/ha (ABUTH [17]) of 100% and a pest or weed control at 320 g/ha (CYPES [18]) of 90%. The pest or weed control at 80 g/ha (ALOMY [19]) was 100% and the pest or weed control at 320 g/ha (AVEFA [20]) was 100%.
